{"source": "paper PMC11481179", "about": "“Development and Application of Reversible and Irreversible Covalent Probes for Human and Mouse Cathepsin‐K Activity Detection, Revealing Nuclear Activity” (Advanced Science, 2024)", "key": {"CTSL": {"biological_target": "CTSL (Homo sapiens, UniProt P07711)", "sequence (P07711 114-333)": "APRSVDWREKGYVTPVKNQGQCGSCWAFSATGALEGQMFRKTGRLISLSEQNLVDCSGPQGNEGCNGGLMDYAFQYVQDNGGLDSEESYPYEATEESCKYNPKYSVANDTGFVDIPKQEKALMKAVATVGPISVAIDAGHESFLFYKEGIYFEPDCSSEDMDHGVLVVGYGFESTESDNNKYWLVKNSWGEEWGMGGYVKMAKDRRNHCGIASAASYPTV", "assay": "Recombinant cathepsin inhibition, residual activity labeled by pan cathepsin probe GB123, in-gel fluorescence", "assay_type": "biochemical", "conditions": "even at 10 µM", "protocol": "(§1) Figure 1 In vitro evaluation of CTSK targeted compounds. a) Labeling of recombinant cathepsins by ABPs. Recombinant cathepsins were treated with increasing concentrations of ABPs for 1 h. Samples were separated by SDS‐PAGE and scanned for fluorescence by a Typhoon scanner at 635/670 nm. All probes show dose‐dependent binding to the CTSK, and have lower affinity to CTSS except GD36, b) CTSK [0.5–280 ng] was labeled with the indicated ABPs [5 µM]. Incubations were performed for 1 h at 37 °C, at pH 5.5. Samples were analyzed as described in (a). c) Recombinant cathepsins B, K, L, and S [0.5 µM] were first treated with the indicated concentrations of the inhibitor GD30 or vehicle for 1 h followed by incubation with a pan cathepsin probe GB123 [1 µM] for 1 h. Samples were analyzed as described in (a). d) Quantitative analysis of CTSK inhibition by GD30 presented in (d), data represent mean values ± standard error, n = 3. e) IC50 plot of GD30 inhibition of CTSK activity.\n(§2) To further evaluate the probes for their selectivity, we applied a potent and selective covalent inhibitor, Compound 6 (GD30); the inhibitor was generated as a precursor of GD32 and GD36. GD30 was evaluated for its ability to block cathepsin activities by preincubating it with each recombinant enzyme before labeling it by a pan cathepsin ABP, GB123. […]\n(§3) Recombinant cathepsin inhibition: Recombinant human CTSL, CTSB, CTSK, and CTSS (0.5 µM) were pretreated with different concentrations of inhibitors (GD30, ODN) for 1 h in reaction buffer (50 mM acetate, 4 mM DTT and 5 mM MgCl2, pH 5.5) at 37 °C. GB123, 1 µM, was added, and incubated with samples for 1 h at 37 °C. The reaction was stopped by the addition of sample buffer 4x (40% glycerol, 0.2 M Tris/HCl pH 6.8, 20% beta-mercaptoethanol, 12% SDS, and 0.4 mg/ml bromophenol blue). Samples were then boiled at 95 °C for 2 mins, separated on a 12.5% SDS gel, and scanned for fluorescence by a Typhoon scanner FLA 9500 at excitation/emission wavelengths of 635/670 nm.\n(§4) Recombinant cathepsin labeling: Recombinant human CTSL, CTSB, CTSK, and CTSS (0.5 µM) were pretreated with different concentrations of probes (GD32, GD36, GD37, or GD42)"}, "CTSS": {"biological_target": "CTSS (Homo sapiens, UniProt P25774)", "sequence (P25774 115-331)": "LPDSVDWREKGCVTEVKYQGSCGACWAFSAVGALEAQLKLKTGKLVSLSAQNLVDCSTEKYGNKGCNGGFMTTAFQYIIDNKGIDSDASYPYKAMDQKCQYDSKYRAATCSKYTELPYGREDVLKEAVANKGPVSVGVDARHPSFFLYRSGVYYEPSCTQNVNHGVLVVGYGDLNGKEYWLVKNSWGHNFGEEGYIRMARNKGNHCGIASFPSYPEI", "assay": "Recombinant cathepsin inhibition, residual activity labeled by pan cathepsin probe GB123, in-gel fluorescence", "assay_type": "biochemical", "conditions": "even at 10 µM", "protocol": "as §1, §2, §3, §4"}, "CTSK [1]": {"biological_target": "T1, CTSK (Homo sapiens, UniProt P43235)", "T1 sequence (P43235 115-329)": "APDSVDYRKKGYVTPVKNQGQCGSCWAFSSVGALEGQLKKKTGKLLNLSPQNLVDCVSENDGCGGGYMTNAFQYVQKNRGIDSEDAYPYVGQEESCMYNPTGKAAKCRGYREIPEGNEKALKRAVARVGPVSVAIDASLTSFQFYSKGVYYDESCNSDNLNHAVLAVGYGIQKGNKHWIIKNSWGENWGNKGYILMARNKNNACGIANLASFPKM", "assay": "Recombinant cathepsin inhibition, residual activity labeled by pan cathepsin probe GB123, in-gel fluorescence", "assay_type": "biochemical", "conditions": "CTSK 0.5 µM, 1 h preincubation, then GB123 1 µM 1 h, pH 5.5", "protocol": "as §1, §2, §3, §4"}, "CTSK [2]": {"biological_target": "T1, CTSK", "assay": "Recombinant cathepsin labeling by ABPs, in-gel fluorescence", "assay_type": "binding", "conditions": "ABP 5 µM, 1 h, 37 °C, pH 5.5, CTSK 0.5–280 ng", "protocol": "The ABPs were tested for binding to recombinant CTSK compared to the closely related CTSB, CTSL, and CTSS, which are highly abundant and active in most biological samples. Using the in‐gel fluorescent analysis that detects the stable enzyme‐probe complex, active CTSK was labeled with each of the four probes, and significant selectivity was found in three probes GD32, GD37, and GD42 (Figure 1a). […] However, the minimum amount of active CTSK the remaining probes detected was much higher, ranging from 8 to 70 ngs, (Figure 1b).\nas §1, with “activity. […]” for “activity.”\nemission wavelengths of 370 and 460 nm, respectively. Cathepsin concentrations in the assay were 0.4 nM (CTSK) or 5 nM (CTSS, CTSB, and CTSL). […] For irreversible inhibitors, reaction data were fitted to the one-phase association formula in GraphPad Prism 9 software: Y=Y0 + (Plateau-Y0)*(1-exp(-K*X)) where in this case Y0 and Y represent fluorescence signal at times 0 and t, respectively, K represent the observed reaction rate kobs and X the inhibitor concentration. […]\nreaction was stopped and samples were analyzed as described above. […]"}}}
{"smiles": "C#CCNC(=O)[C@H](CC(C)C)N[C@@H](c1ccc(-c2ccc(S(=O)(=O)CCNC(=O)OC(C)(C)C)cc2)cc1)C(F)(F)F", "note": "[GD30]", "values": [{"measurement": "inhibition of recombinant cathepsin", "setting": "CTSL", "value": "not inhibiting"}, {"measurement": "inhibition of recombinant cathepsin", "setting": "CTSS", "value": "not inhibiting"}, {"measurement": "IC50", "setting": "CTSK [1]", "value": 561, "unit": "nM"}]}
{"smiles": "C#CCNC(=O)[C@H](CC(C)C)N[C@@H](c1ccc(-c2ccc(S(=O)(=O)CCNC(=O)CCCCC[N+]3=C(/C=C/C=C/C=C4/N(C)c5ccc(S(=O)(=O)O)cc5C4(C)C)C(C)(C)c4cc(S(=O)(=O)O)ccc43)cc2)cc1)C(F)(F)F", "note": "[GD32]", "values": [{"measurement": "minimum amount of active CTSK detected", "setting": "CTSK [2]", "value": 0.5, "unit": "ng"}]}
